Results as given in BindingDB's records for doi:10.7270/Q2TX3CTT (Broad Institute, 2010).

biological target: Glycogen synthase kinase-3 beta (Homo sapiens, UniProt P49841); assay: GSK3beta kinase inhibitor potency, dose response, biochemical, luminescence, cell-free homogeneous, retest (AID 434954)
Sequence (P49841 whole entry): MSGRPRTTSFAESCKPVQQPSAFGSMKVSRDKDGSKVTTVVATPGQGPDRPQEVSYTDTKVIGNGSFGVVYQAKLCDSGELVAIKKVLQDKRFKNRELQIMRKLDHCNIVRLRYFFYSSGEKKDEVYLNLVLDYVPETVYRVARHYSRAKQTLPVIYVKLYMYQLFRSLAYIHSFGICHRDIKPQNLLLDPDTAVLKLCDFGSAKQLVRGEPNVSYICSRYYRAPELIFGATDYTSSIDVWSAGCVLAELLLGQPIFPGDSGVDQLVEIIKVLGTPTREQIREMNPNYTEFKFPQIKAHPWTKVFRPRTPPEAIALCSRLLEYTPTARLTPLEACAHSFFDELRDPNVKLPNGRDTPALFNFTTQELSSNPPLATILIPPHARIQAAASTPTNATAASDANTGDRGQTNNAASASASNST

Row | Structure (SMILES) | EC50 [µM]
1 | O=C(CCS(=O)(=O)Cc1ccccc1)Nc1ncc([N+](=O)[O-])s1 [SMR000669229] | 57.1
2 | COCCn1c(SCC(=O)Nc2nc(C)c(Cl)cc2Cl)nc2ccccc21 [N-[3,5-bis(chloranyl)-6-methyl-pyridin-2-yl]-2-[1-(2-methoxyethyl)benzimidazol-2-yl]sulfanyl-ethanamide] | > 300
3 | Cc1cc(C(=O)OCCN2C(=O)c3ccccc3C2=O)c2ccccc2n1 [MLS000565821] | > 300
4 | O=[N+]([O-])c1ccccc1S(=O)(=O)Nc1ccc(S(=O)(=O)Nc2nccs2)cc1 | > 300
5 | Cc1c(NC(=O)CSc2nnc3sc4ccccc4n23)c(=O)n(-c2ccccc2)n1C [MLS000060665] | > 300
6 | COc1c(CC=C(C)C)cc([C@@H]2CC(=O)c3c(O)cc(O)cc3O2)cc1CC=C(C)C [abyssinone-V-4'-O-methyl ether] | > 300
7 | O=NCc1ccc(OCc2ccccc2)c(Cl)c1 [3-chloro-4-phenylmethoxybenzaldehyde oxime] | > 300
8 | CN1CCc2c(sc3c2c(=O)n(-c2cccc(Cl)c2)c2nncn32)C1 [MLS000084041] | > 300
9 | O=C(c1cccc(-c2ccccc2)c1)N1CC[C@@H](N2CCC(O)CC2)[C@H](O)C1 | > 300
10 | CCNc1nc(N)c(C(=O)c2ccc(Cl)s2)s1 [[4-amino-2-(ethylamino)-1,3-thiazol-5-yl]-(5-chlorothiophen-2-yl)methanone] | 0.174
11 | CN1CC(=O)Nc2ccc([N+](=O)[O-])cc2C1=O | > 300
12 | O=C(COc1ccc2ccccc2c1)Nc1cccc2c1C(=O)NC2=O [MLS000375387] | > 300
13 | CCCOC(=O)c1ccc(O)cc1 [SMR000112070] | > 300
14 | COC(=O)CSc1ncnc2c1sc1nc(N3CCOCC3)c3c(c12)CCCC3 [MLS000535174] | > 300
15 | Cc1ccc(S(=O)(=O)NN=Cc2cn(-c3ccccc3)nc2-c2ccccc2)cc1 [N-[(1,3-diphenylpyrazol-4-yl)methylideneamino]-4-methylbenzenesulfonamide] | > 300
16 | O=C(NCCCn1ccnc1)c1ccco1 | > 300
17 | COc1ccc(-c2nn(CCC#N)cc2CN=O)cc1OC [3-[3-(3,4-dimethoxyphenyl)-4-(hydroxyiminomethyl)pyrazol-1-yl]propanenitrile] | > 300
18 | CC(Sc1ccc2nnc(-c3ccc(F)cc3)n2n1)C(=O)O (stereo not given) [2-[[3-(4-fluorophenyl)-[1,2,4]triazolo[4,3-b]pyridazin-6-yl]sulfanyl]propanoic acid] | 21.4
19 | Cc1ccc(NC(=O)C2CCN(S(=O)(=O)c3ccc4c(c3)NC(=O)C(C)S4)CC2)c(Cl)c1 (stereo not given) [SMR000630224] | > 300
20 | O=C(NNC(=O)C1[C@H]2CCCC[C@@H]12)c1ccc(=O)oc1 (stereo not given in full) [MLS000768334] | > 300
21 | COc1ccc(OC)c(C(O)c2coc3ccc(O)c(CN(C)C)c23)c1 (stereo not given) | > 300
22 | Cc1nc(NCCCn2ccnc2)c2oc3ccccc3c2n1 [MLS000082652] | > 300
23 | COc1cccc(N=Nc2c(N)[nH][nH]c2=O)c1 [SMR000231776] | 19.9
24 | CS(=O)(=O)Nc1cccc(-c2cn3c(n2)SCC3)c1 [MLS001167062] | > 300
25 | Cc1ccc(Nc2nc(NCC3CCCO3)nc(N)c2[N+](=O)[O-])cc1C (stereo not given) [SMR000219669] | 10.7

Row | Structure (SMILES) | EC50 [µM]
26 | CCc1ccc(S(=O)(=O)Nc2ccc(O)c3c(=O)cc(-c4ccccc4Cl)oc23)cc1 [SMR000465243] | > 300
27 | COc1ccc(CCNc2c(C=O)c(=O)[nH]c3ccccc23)cc1OC | > 300
28 | Cc1ccc(C2c3c([nH]c(=S)[nH]c3=O)N=C3CC(C)(C)CC(=O)C32)cc1 (stereo not given) [8,8-dimethyl-5-(4-methylphenyl)-2-sulfanylidene-5,7,9,10-tetrahydro-1H-pyrimido[4,5-b]quinoline-4,6-dione] | > 300
29 | O=C(Nc1ccc2c(c1)OCO2)Nc1ccccn1 [N-1,3-benzodioxol-5-yl-N'-2-pyridinylurea] | > 300
30 | O=C(O)CCn1cc(C(=O)O)c(-c2ccccc2)n1 [1-(2-carboxyethyl)-3-phenyl-4-pyrazolecarboxylic acid] | > 300
31 | CC(=O)c1ccc(NC(=O)NNS(=O)(=O)c2ccc([N+](=O)[O-])cc2)cc1 | > 300
32 | OCCNc1nc(-c2cccnc2)nc2ccccc12 [MLS000107346] | > 300
33 | O=C(CSc1nnc(-c2ccncc2)o1)Oc1ccccc1 [SMR000006341] | > 300
34 | CCOc1ccc(CNC(=O)Cn2ccc3cc(S(=O)(=O)N4CCCCCC4)ccc32)cc1 [SMR000629622] | > 300
35 | O=C(CN1C(=O)CCC1=O)Nc1cccc2c1C(=O)NC2=O [MLS000703473] | 2.36
36 | Nc1ncnc2c1ccn2[C@@H]1O[C@H](CO)[C@@H](O)[C@H]1O ['2-(4-AMINO-PYRROLO[2,3-D]PYRIMIDIN-7-YL)-5-HYDROXYMETHYL-TETRAHYDRO-FURAN-3,4-DIOL] | > 300
37 | Cc1ccc(CNS(=O)(=O)c2c(C)[nH]c(=O)[nH]c2=O)cc1 [MLS001200136] | > 300
38 | Nc1nonc1-n1nnc(C(=O)NN=Cc2ccccn2)c1-c1ccccc1 [1-(4-azanyl-1,2,5-oxadiazol-3-yl)-5-phenyl-N-(pyridin-2-ylmethylideneamino)-1,2,3-triazole-4-carboxamide] | 65.6
39 | CC(C)(C)NC1=NN=C(c2ccc(Cl)cc2)CS1 [N-tert-butyl-5-(4-chlorophenyl)-6H-1,3,4-thiadiazin-2-amine] | > 300
40 | Cc1ccc(SCCc2ccc(C)nc2)cc1 | > 300
41 | Oc1ccc(N2CCN(C(=S)NCCc3ccccc3)CC2)cc1 [SMR000199335] | > 300
42 | COC(=O)c1ccccc1OCCOc1ccccc1C(=O)OC | > 300
43 | Cc1nnc(SCC(=O)Nc2ccc(Cl)cn2)[nH]c1=O [N-(5-chloro-2-pyridinyl)-2-[(6-methyl-5-oxo-2H-1,2,4-triazin-3-yl)thio]acetamide] | 36.7
44 | O=C(N[N-][CH+]c1ccc(N2CCCC2)c([N+](=O)[O-])c1)c1cccnc1 [N-[(3-nitro-4-pyrrolidin-1-ylphenyl)methylideneamino]pyridine-3-carboxamide] | > 300
45 | Nc1nc(NCCCN2CCOCC2)nc(NCc2ccccc2)c1[N+](=O)[O-] [N'-Benzyl-N-(3-morpholin-4-yl-propyl)-5-nitro-pyrimidine-2,4,6-triamine] | 8.32
46 | CCn1nc(NC(=O)CC(C)C)c2cc3cccc(C)c3nc21 [SMR000542878] | > 300
47 | O=C(CCS(=O)(=O)c1ccccc1)Nc1cccc2c1C(=O)NC2=O [3-(benzenesulfonyl)-N-(1,3-dioxoisoindol-4-yl)propanamide] | 25.2
48 | Cc1ccc(C=NNC(=O)c2cncc(Br)c2)o1 [SMR000226283] | > 300
49 | COc1cccc(NC(=O)CN(C)C(=O)c2cc(-c3ccc(F)cc3)nc3ccccc23)c1 | > 300
50 | COc1ccc2c(c1)C(=O)C(=O)N2 [5-methoxy-2,3-dihydro-1H-indole-2,3-dione] | > 300

Row | Structure (SMILES) | EC50 [µM]
51 | COc1ccc(C(=O)c2coc3ccc(OC(C)=O)cc23)cc1 | > 300
52 | O=C1N=c2cc(Cl)ccc2=C1NNc1ccc(C(=O)O)cc1 [MLS000759696] | 19.1
53 | COc1ccc(/C=C2\Sc3ccc(C(=O)NCCN4CCCCCC4)cc3N(C)C2=O)cc1 [(2Z)-N-[2-(azepan-1-yl)ethyl]-2-[(4-methoxyphenyl)methylidene]-4-methyl-3-oxo-1,4-benzothiazine-6-carboxamide] | 43.3
54 | CC(CC(=O)NCc1ccccc1)=NNC(=O)c1cnccn1 [MLS000701004] | > 300
55 | CC1(C)CC(=O)C=C(Nc2ccc(F)cc2F)C1 | > 300
56 | O=C(CSc1ncnc2c1cnn2-c1ccc(F)cc1)NCC1CCCO1 (stereo not given) [SMR000806858] | > 300
57 | COc1ccc(Nc2nc(NCC3CCCO3)nc(N)c2[N+](=O)[O-])cc1 (stereo not given) [N'-(4-Methoxy-phenyl)-5-nitro-N-(tetrahydro-furan-2-ylmethyl)-pyrimidine-2,4,6-triamine] | > 300
58 | CCCCc1cc(=O)oc2cc(C)c(CN3CCCC3)c(O)c12 [4-butyl-7-methyl-5-oxidanyl-6-(pyrrolidin-1-ylmethyl)chromen-2-one] | > 300
59 | COc1cccc(CCNC(=O)c2ccc(C#N)cc2)c1 [MLS000696427] | > 300
60 | CCCn1nc(NC(=O)C(C)(C)C)c2cc3cc(OC)ccc3nc21 [N-(6-methoxy-1-propylpyrazolo[3,4-b]quinolin-3-yl)-2,2-dimethylpropanamide] | 63.8
61 | COc1ccccc1-c1coc2c(CN(C)C)c(O)ccc2c1=O [8-[(dimethylamino)methyl]-7-hydroxy-3-(2-methoxyphenyl)chromen-4-one] | > 300
62 | Cc1ccccc1-c1nnc(SCc2ccc(F)cc2)o1 [2-[(4-fluorophenyl)methylsulfanyl]-5-(2-methylphenyl)-1,3,4-oxadiazole] | > 300
63 | Cc1ccnc(NC(=O)c2ccccc2[N+](=O)[O-])c1 [N-(4-methylpyridin-2-yl)-2-nitro-benzamide] | > 300
64 | O=S(=O)(/C=C/c1ccccc1)N1CCN(Cc2ccc3c(c2)OCO3)CC1 | > 300
65 | CNc1nc(N)c(C(=O)C(C)(C)C)s1 [MLS000050680] | > 300
66 | CC(C)Cc1ccccc1O [SMR000639202] | > 300
67 | COc1ccc(OCCCC(=O)NCc2ccco2)cc1 [N-Furan-2-ylmethyl-4-(4-methoxy-phenoxy)-butyramide] | > 300
68 | CCOC(=O)c1cnc2ccc(C)cc2c1Nc1ccc(N2CCOCC2)cc1 [6-methyl-4-(4-morpholinoanilino)quinoline-3-carboxylic acid ethyl ester] | > 300
69 | CC1CN(c2nc(Nc3ccccc3)nc(N)c2[N+](=O)[O-])CC(C)O1 (stereo not given) | 35.9
70 | CC(C)c1ccc(C=NNC(=O)c2nnn(-c3nonc3N)c2CN2CCOCC2)cc1 [SMR000646507] | > 300
71 | CC1CCCC(C)N1C(=O)CN1C(=O)C(C)(C)Oc2ccc(C(=O)NC3CCCC3)cc21 (stereo not given) | > 300
72 | Cc1ccc(S(=O)(=O)CC(=O)Nc2ncc([N+](=O)[O-])s2)cc1 [2-(4-methylphenyl)sulfonyl-N-(5-nitro-1,3-thiazol-2-yl)acetamide] | > 300
73 | CCOC(=O)c1nnn(-c2nc(OC)nc(N3CCCC3)n2)c1-c1ccccc1 | > 300
74 | Fc1cccc(CN=Nc2ncnc3nc[nH]c23)c1 | 11.9
75 | CCC(=O)c1c(CC)c2n3c1CC[C@H]3CCC2 [SMR000469597] | > 300
